Our source for the neurite outgrowth activity values is patent publication US8569524B2, “Bis(tetrahydrofuran) compound, method for production of the compund, and use of the compound” (Glytech Inc., priority 2007, dated 2013).

The test system of the experiment is Pheochromocytoma (PC12) cells. In words: Neurite outgrowth activity test in PC12 cells in the presence of NGF. It is filed as cell-based. The note with it: in the presence of DMSO and NGF (20 ng/ml), compared with the sample without compound, micrographs. Here is the method:
When the solvent was ethanol, the concentrations were targeted at 1 mM, 0.1 mM, and […]. A sample at 1 mM concentration was prepared first. When the amount of sample was 1 mg, the sample was dissolved in 100% ethanol (1/molecular weight×1,000)/2 ml, and an equal amount of Milli-Q (1/molecular weight×1,000)/2 ml was added thereto, after which the sample was filtered through a […] into a sample tube.
A sample at 0.1 mM concentration was prepared by diluting 1 mM solution 10-fold with 50% ethanol. Likewise, a sample at […] concentration was prepared from 0.1 mM solution.
When the solvent was DMSO, the concentrations were targeted at 10 mM, 1 mM, and 0.1 mM.
When the sample is prepared in ethanol, the sample is diluted 100-fold with the medium; and when the sample is prepared in DMSO, the sample is diluted 1,000-fold in the medium. The actual concentrations of the sample were thus […] both when the sample was prepared in ethanol and when the sample was prepared in DMSO.
Measurement was carried out using the following equipment and software.
Statistical processing of obtained data was carried out using “Origin ver. 7.0” (OriginLab, USA) and Mac Statistical Analysis. The significant difference was determined using Student's T-test and Dunnett's T-test.
Pheochromocytoma (PC12) cells were purchased from the Health Science Research Resources Bank of the Japan Health Sciences Foundation. Cell number: JCRB0733, product name: PC-12.
PC12 cells were cultivated in a medium having a composition including DMEM/10% HS, 5% FBS, 50 IU/ml penicillin, and […], in a culture flask coated with rat tail-derived collagen, in an incubator (95% humidity, 5% carbon dioxide). When the cell density becomes obviously too low, or when the cells overproliferate, the cells would be under load, requiring a longer time for proliferation and/or causing the cells to dye out. Thus, the cells were subcultured such that the cells would be present at a density of about 80% in the flask. When cells were subcultured or when activity evaluation tests were carried out, the cells were treated with trypsin (0.25%, 5 min.) to obtain a cell suspension, which was then seeded into a collagen-coated culture flask or plate.
The condition of the PC12 cells was observed; it was confirmed that at least 50% of the PC12 cells were fused. The plate was coated with rat tail-derived collagen; on the following day, the plate was washed twice with Milli-Q water. Then, a medium having a composition including DMEM/10% HS, 5% FBS, 50 IU/ml penicillin, and […] was prepared.
The medium in the culture flask was removed by suction. The PC12 cells were washed twice with PBS (5 mL), and trypsin (3 mL) was added thereto, which was then left to stand for about 5 minutes. A cell suspension was obtained by pipetting. In order to inhibit the activity of the trypsin, the cell suspension was transferred to a 50 mL centrifuge tube containing a serum-containing medium (2 mL). The total amount was adjusted to 10 mL with PBS, and the cell suspension was centrifuged (1,000 rpm×5 min). After centrifuging, the supernatant liquid was removed by suction using a pump, PBS (10 mL) was added thereto, and pipetting was carried out several times using a bent-tip Komagome pipette. After pipetting, the cell suspension was centrifuged again, and a similar operation was repeated twice. […]

In the case of `CO[C@]1(C)C[C@@H]2OCC3=CCCCC32O1` (some centres unmarked) [Compound 1D-2-1], the neurite outgrowth activity entry (1 μM compound) is given as “further enhanced neurite outgrowth activity” and the neurite outgrowth activity entry (10 μM compound) is “further enhanced neurite outgrowth activity”.

`CO[C@@]1(C)C[C@@H]2OCC3=CCCCC32O1` (some centres unmarked) [Compound 1C-2-1]: the neurite outgrowth activity result is recorded as “further enhanced neurite outgrowth activity” (1 μM compound) and “further enhanced neurite outgrowth activity” (10 μM compound).

For `CCO[C@]1(C)C[C@@H]2OCC3=CCCC[C@]32O1` [Compound 1D-2-3], the neurite outgrowth activity entry (10 μM compound) is “further enhanced neurite outgrowth activity”.
